Measured values as given in patent publication US9115092B2, “Substituted quinazoline and pyrido-pyrimidine derivatives” (Asana Biosciences, LLC, priority 2010, dated 2015).

Assays:
[1] = molecular target: T1, PI3Kα (wild-type), P110/P85α (Homo sapiens, UniProt P42336); experiment: PI3 Kinase TR-FRET assay, PI3Kα (wild-type); format: biochemical
T1 construct: made in house; host or cells: SF9 insect cells
Method in brief: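 TR-FRET read-out of PIP3 formation via biotin-PIP3 displacement (665/615 nm ratio) gave IC50 curves. Enzyme: 5 ng wild-type P110/P85α from Sf9 cells, 60 min RT with compound and PIP2 (MgCl2 40 mM, DTT 5 mM), then 30 min RT kinase reaction at 10 μM ATP and 10 μM PIP2.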

[2] = molecular target: T2, mTOR kinase (Homo sapiens, UniProt P42345); experiment: mTOR kinase TR-FRET assay; format: biochemical; conditions: read-out: mTO R
T2 construct: purchased Millipore, USA
Method in brief: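 TR-FRET read-out (340 nm excitation, 615/665 nm emission) of Thr389 phosphorylation of a ULight-labeled p70 S6K peptide (50 nM) by mTOR, 20 μM ATP, 60 min room temperature after 60 min compound preincubation. Buffer HEPES pH 7.5 with MnCl2, EGTA; IC50 by sigmoidal dose-response.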

[3] = tested on: pS6RP(S235/236), PC3 cells; experiment: In-cell Western assay, pS6RP(S235/236) in PC3 cells; format: cell-based, human; conditions: Homo sapiens, PC-3, In-cell Western
Method in brief: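 Overnight-seeded PC3 cells were treated 2 h with serially diluted compound, then fixed and immunostained with phospho-specific primary antibodies and Eu-labelled secondary. Time-resolved Eu signal read at 615 nm (ex 340 nm), normalised by Hoechst 33258 staining (ex 355/em 460 nm); IC50 from sigmoidal dose-response fit.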

[4] = tested on: PC3 cells; experiment: XTT assay for cell viability, PC3 cells; format: cell-based, human; conditions: Homo sapiens, PC-3, cell viability
Method in brief: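 PC3 cells seeded at 1000 cells/well, grown 24 h, then exposed to serial dilutions of compound for 96 h. Viability read by XTT dye at 37° C, absorbance 465 nm. EC50 from sigmoidal dose-response fit.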

T1 sequence (P42336 whole entry): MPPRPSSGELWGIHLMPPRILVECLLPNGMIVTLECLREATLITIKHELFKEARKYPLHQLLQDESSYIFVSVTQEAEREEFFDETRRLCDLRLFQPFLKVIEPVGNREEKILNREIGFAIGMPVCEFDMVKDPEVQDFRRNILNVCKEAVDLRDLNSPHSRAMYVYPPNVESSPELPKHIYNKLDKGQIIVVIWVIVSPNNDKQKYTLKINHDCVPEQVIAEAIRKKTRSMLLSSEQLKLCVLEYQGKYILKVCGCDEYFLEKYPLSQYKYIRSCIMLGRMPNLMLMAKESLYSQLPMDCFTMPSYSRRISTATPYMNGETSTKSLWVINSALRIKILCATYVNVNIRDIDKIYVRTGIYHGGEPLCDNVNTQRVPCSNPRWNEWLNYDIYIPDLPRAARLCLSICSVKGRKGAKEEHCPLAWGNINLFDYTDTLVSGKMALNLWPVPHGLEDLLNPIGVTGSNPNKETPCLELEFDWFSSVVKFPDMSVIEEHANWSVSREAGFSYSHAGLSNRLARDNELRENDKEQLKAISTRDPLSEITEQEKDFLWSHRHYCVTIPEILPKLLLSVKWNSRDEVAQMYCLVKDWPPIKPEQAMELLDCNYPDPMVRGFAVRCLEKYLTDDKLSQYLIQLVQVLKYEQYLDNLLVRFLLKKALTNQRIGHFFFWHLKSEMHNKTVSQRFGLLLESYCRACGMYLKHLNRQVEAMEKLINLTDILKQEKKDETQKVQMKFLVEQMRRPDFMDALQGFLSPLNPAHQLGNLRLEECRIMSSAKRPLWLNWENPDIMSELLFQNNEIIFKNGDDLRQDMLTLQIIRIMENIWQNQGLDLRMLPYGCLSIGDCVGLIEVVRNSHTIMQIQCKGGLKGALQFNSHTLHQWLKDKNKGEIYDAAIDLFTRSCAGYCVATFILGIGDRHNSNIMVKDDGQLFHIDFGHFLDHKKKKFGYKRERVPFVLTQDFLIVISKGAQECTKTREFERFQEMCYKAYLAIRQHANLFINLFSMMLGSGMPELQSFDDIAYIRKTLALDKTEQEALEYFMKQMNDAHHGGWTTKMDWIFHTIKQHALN
T1 sequence (P27986 whole entry partner): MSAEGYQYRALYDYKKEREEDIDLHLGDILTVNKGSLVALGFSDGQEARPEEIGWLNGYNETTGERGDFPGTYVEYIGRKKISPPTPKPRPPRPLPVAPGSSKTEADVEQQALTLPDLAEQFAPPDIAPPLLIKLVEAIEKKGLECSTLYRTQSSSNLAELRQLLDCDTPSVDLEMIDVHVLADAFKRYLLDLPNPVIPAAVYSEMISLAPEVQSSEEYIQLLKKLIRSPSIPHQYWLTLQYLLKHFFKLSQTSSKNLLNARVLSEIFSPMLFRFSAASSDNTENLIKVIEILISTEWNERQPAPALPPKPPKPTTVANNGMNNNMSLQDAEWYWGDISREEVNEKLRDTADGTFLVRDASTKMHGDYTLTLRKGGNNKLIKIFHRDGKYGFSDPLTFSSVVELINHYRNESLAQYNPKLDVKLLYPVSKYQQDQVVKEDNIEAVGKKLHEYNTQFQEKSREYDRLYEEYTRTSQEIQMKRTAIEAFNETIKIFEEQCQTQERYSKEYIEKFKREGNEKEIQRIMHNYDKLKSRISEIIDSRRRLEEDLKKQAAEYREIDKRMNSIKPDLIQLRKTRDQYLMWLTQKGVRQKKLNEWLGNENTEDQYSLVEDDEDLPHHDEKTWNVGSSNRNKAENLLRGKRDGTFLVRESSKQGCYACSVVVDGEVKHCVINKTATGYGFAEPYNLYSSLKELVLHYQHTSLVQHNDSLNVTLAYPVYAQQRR

Compound | IC50 [1] [nM] | IC50 [2] [nM] | IC50 [3] [nM] | IC50 [4] [nM]
CN(C)C(=O)c1ccc(NC(=O)Nc2ccc(-c3nc(N4CCOCC4)c4ncc(-c5cncnc5)cc4n3)cc2F)cc1 [Example 101, 4-(3-(2-fluoro-4-(4-morpholino-7-(pyrimidin-5-yl)pyrido[3,2-d]pyrimidin-2-yl)phenyl)ureido)-N,N-dimethyl-benzamide] | < 50 | < 50 | 201 to 10000 | 201 to 10000
CN(C)C(=O)c1ccc(NC(=O)Nc2ccc(-c3nc(N4CCOCC4)c4ncc(-c5cccnc5)cc4n3)cc2F)cc1 [Example 102, 4-(3-(2-fluoro-4-(4-morpholino-7-(pyridin-3-yl)pyrido[3,2-d]pyrimidin-2-yl)phenyl)ureido)-N,N-dimethyl-benzamide] | < 50 | < 50 | 201 to 10000 | 201 to 10000
CN(C)C(=O)c1ccc(NC(=O)Nc2ccc(-c3nc(N4CCOCC4)c4ccc(-c5cccnc5)cc4n3)cc2F)cc1 [Example 103, 4-(3-(2-fluoro-4-(4-morpholino-7-(pyridin-3-yl)quinazolin-2-yl)phenyl)ureido)-N,N-dimethyl-benzamide] | < 50 | < 50 | 201 to 10000 | 201 to 10000
COc1ncc(-c2ccc3c(N4CCOCC4)nc(-c4ccc(NC(=O)Nc5ccc(C(=O)N(C)C)cc5)c(F)c4)nc3c2)cn1 [Example 105, 4-(3-(2-fluoro-4-(7-(2-methoxypyrimidin-5-yl)-4-morpholino-quinazolin-2-yl)phenyl)ureido)-N,N-dimethyl-benzamide] | 50 to 200 | < 50 | 201 to 10000 | 201 to 10000
CN(C)C(=O)c1ccc(NC(=O)Nc2ccc(-c3nc(N4CCOCC4)c4ncc(-c5cccnc5F)cc4n3)cc2F)cc1 [Example 106, 4-(3-(2-fluoro-4-(7-(2-fluoropyridin-3-yl)-4-morpholino-pyrido[3,2-d]pyrimidin-2-yl)phenyl)ureido)-N,N-dimethyl-benzamide] | < 50 | < 50 | 201 to 10000 | 201 to 10000
CN(C)C(=O)c1ccc(NC(=O)Nc2ccc(-c3nc(N4CCOCC4)c4cc(F)c(-c5cccnc5F)cc4n3)cc2)cc1 [Example 107, 4-(3-(4-(6-fluoro-7-(2-fluoropyridin-3-yl)-4-morpholino-quinazolin-2-yl)phenyl)ureido)-N,N-dimethyl-benzamide] | < 50 | < 50 | 201 to 10000 | 201 to 10000
CN(C)C(=O)c1ccc(NC(=O)Nc2ccc(-c3nc(N4CCOCC4)c4cc(F)c(-c5cccnc5F)cc4n3)cn2)cc1 [Example 112, 4-(3-(5-(6-fluoro-7-(2-fluoropyridin-3-yl)-4-morpholino-quinazolin-2-yl)pyridin-2-yl)ureido)-N,N-dimethyl-benzamide] | < 50 | 201 to 10000 | 501 to 5000 | < 100
CN(C)C(=O)c1ccc(NC(=O)Nc2ccc(-c3nc(N4CCOCC4)c4ncc(-c5cccc(S(C)(=O)=O)c5)cc4n3)cn2)cc1 [Example 115, N,N-dimethyl-4-(3-(5-(7-(3-(methylsulfonyl)phenyl)-4-morpholino-pyrido[3,2-d]pyrimidin-2-yl)pyridin-2-yl)ureido)-benzamide] | < 50 | 50 to 200 | 201 to 10000 | 201 to 10000
COc1ncc(-c2cnc3c(N4CCOCC4)nc(-c4ccc(NC(=O)Nc5ccc(C(=O)N(C)C)cc5)c(F)c4)nc3c2)cn1 [Example 117, 4-(3-(2-fluoro-4-(7-(2-methoxypyrimidin-5-yl)-4-morpholino-pyrido[3,2-d]pyrimidin-2-yl)phenyl)ureido)-N,N-dimethyl-benzamide] | < 50 | < 50 | 201 to 10000 | < 100
Cc1noc(C)c1-c1cnc2c(N3CCOCC3)nc(-c3ccc(NC(=O)Nc4ccc(C(=O)N(C)C)cc4)cc3)nc2c1 [Example 120, 4-(3-(4-(7-(3,5-dimethylisoxazol-4-yl)-4-morpholino-pyrido[3,2-d]pyrimidin-2-yl)phenyl)ureido)-N,N-dimethyl-benzamide] | < 50 | < 50 | 201 to 10000 | 201 to 10000
Cc1noc(C)c1-c1ccc2c(N3CCOCC3)nc(-c3ccc(NC(=O)Nc4ccc(C(=O)N(C)C)cc4)cc3)nc2c1 [Example 121, 4-(3-(4-(7-(3,5-dimethylisoxazol-4-yl)-4-morpholino-quinazolin-2-yl)phenyl)ureido)-N,N-dimethyl-benzamide] | < 50 | < 50 | 201 to 10000 | 201 to 10000
CN(C)C(=O)c1ccc(NC(=O)Nc2ccc(-c3nc(N4CCOCC4)c4ccc(-c5cncnc5)cc4n3)cc2F)cn1 [Example 123, 5-(3-(2-fluoro-4-(4-morpholino-7-(pyrimidin-5-yl)quinazolin-2-yl)phenyl)ureido)-N,N-dimethylpicolinamide] | 50 to 200 | < 50 | 201 to 10000 | 201 to 10000
CN(C)C(=O)c1ccc(NC(=O)Nc2ccc(-c3nc(N4CCOCC4)c4ncc(-c5cnc(N)nc5)cc4n3)cc2F)cc1 [Example 127, 4-(3-(4-(7-(2-aminopyrimidin-5-yl)-4-morpholinopyrido[3,2-d]pyrimidin-2-yl)-2-fluorophenyl)ureido)-N,N-dimethyl-benzamide] | < 50 | < 50 | 201 to 10000 | 201 to 10000
CC1CN(c2nc(-c3ccc(NC(=O)Nc4ccc(C(=O)N(C)C)cc4)cc3)nc3cc(-c4cncnc4)ccc23)CC(C)O1 (stereo not shown) [Example 128, 4-(3-(4-(4-(2,6-dimethylmorpholino)-7-(pyrimidin-5-yl)quinazolin-2-yl)phenyl)ureido)-N,N-dimethyl-benzamide] | 201 to 10000 | < 50 | 201 to 10000 | < 100
Cc1ccc(-c2ccc3c(N4CCOCC4)nc(-c4ccc(NC(=O)Nc5ccc(C(=O)N(C)C)nc5)nc4)nc3c2)o1 [Example 129, N,N-dimethyl-5-(3-(5-(7-(5-methylfuran-2-yl)-4-morpholino-quinazolin-2-yl)pyridin-2-yl)ureido)picolinamide] | < 50 | 50 to 200 | < 100 | 501 to 5000
CN(C)C(=O)c1ccc(NC(=O)Nc2ccc(-c3nc(N4CCOCC4)c4ccc(-c5cccc(S(C)(=O)=O)c5)cc4n3)cc2F)cn1 [Example 130, 5-(3-(2-fluoro-4-(7-(3-(methylsulfonyl)phenyl)-4-morpholino-quinazolin-2-yl)phenyl)ureido)-N,N-dimethylpicolinamide] | < 50 | < 50 | 201 to 10000 | 201 to 10000
Cc1noc(C)c1-c1ccc2c(N3CCOCC3)nc(-c3ccc(NC(=O)Nc4ccc(C(=O)N(C)C)cc4)c(F)c3)nc2c1 [Example 131, 4-(3-(4-(7-(3,5-dimethylisoxazol-4-yl)-4-morpholino-quinazolin-2-yl)-2-fluorophenyl)ureido)-N,N-dimethyl-benzamide] | < 50 | 50 to 200 | 201 to 10000 | 201 to 10000
CC1CN(c2nc(-c3ccc(NC(=O)Nc4ccc(C(=O)N(C)C)cc4)c(F)c3)nc3cc(-c4cncnc4)ccc23)CC(C)O1 (stereo not shown) [Example 132, 4-(3-(4-(4-(2,6-dimethylmorpholino)-7-(pyrimidin-5-yl)quinazolin-2-yl)-2-fluorophenyl)ureido)-N,N-dimethyl-benzamide] | 201 to 10000 | 50 to 200 | 201 to 10000 | 201 to 10000
CN(C)C(=O)c1ccc(NC(=O)Nc2ccc(-c3nc(N4CCOCC4)c4ncc(-c5cnn(C)c5)cc4n3)cc2)c(F)c1 [Example 134, 3-fluoro-N,N-dimethyl-4-(3-(4-(7-(1-methyl-1H-pyrazol-4-yl)-4-morpholino-pyrido[3,2-d]pyrimidin-2-yl)phenyl)ureido)-benzamide] | < 50 | < 50 | 201 to 10000 | 201 to 10000
CN(C)C(=O)c1ccc(NC(=O)Nc2ccc(-c3nc(N4CCOCC4)c4ccc(-c5ccncc5)cc4n3)cc2F)cc1 [Example 137, 4-(3-(2-fluoro-4-(4-morpholino-7-(pyridin-4-yl)quinazolin-2-yl)phenyl)ureido)-N,N-dimethyl-benzamide] | 50 to 200 | 50 to 200 | 201 to 10000 | 201 to 10000
CN(C)C(=O)c1ccc(NC(=O)Nc2ccc(-c3nc(N4CCOCC4)c4ccccc4n3)cc2)cc1 [Example 179, N,N-dimethyl-4-(3-(4-(4-morpholino-quinazolin-2-yl)phenyl)ureido)-benzamide] | 50 to 200 | < 50 | 201 to 10000 | 201 to 10000
COc1ccc2c(N3CCOCC3)nc(-c3ccc(NC(=O)Nc4ccc(C(=O)N(C)C)cc4)cc3)nc2c1 [Example 180, 4-(3-(4-(7-methoxy-4-morpholino-quinazolin-2-yl)phenyl)ureido)-N,N-dimethyl-benzamide] | < 50 | < 50 | 201 to 10000 | 201 to 10000
